Among the test systems are T-47D breast; MDA-MB-231 breast; NCI-H23 lung; NCI/ADR-RES ovarian; SNB-75 CNS; ACHN renal; SR leukemia; SK-OV-3 ovarian; SF-539 CNS; OVCAR-5 ovarian; HOP-92 NSCLC; PC-3 prostate; HT29 colon; UACC-62 melanoma; NCI-H460 lung; K-562 leukemia; A549 NSCLC; HS 578T breast; HCC-2998 colon; BT-549 breast.
Test in all cases: inhibition of tumour cell growth, NCI panel, 48 h

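Test compounds were applied to cells in 96-well plates for 48 hours at 5 doses. TGI: total growth inhibition.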

As to `Cn1c2c(c3ccccc31)CCN1C(=O)CN(C(=O)C3CCCCC3)CC21` (stereo not given), the TGI in the experiment with T-47D breast, with MDA-MB-231 breast, with NCI-H23 lung, in the experiment with NCI/ADR-RES ovarian, in the experiment with SNB-75 CNS and with ACHN renal was more than 100 µM each time. Besides, the TGI with SR leukemia, in the experiment with SK-OV-3 ovarian, with SF-539 CNS, with OVCAR-5 ovarian, in the experiment with HOP-92 NSCLC and in the experiment with PC-3 prostate was more than 100 µM each time. For the same molecule, the TGI in the experiment on HT29 colon, in the experiment on UACC-62 melanoma, in the experiment on NCI-H460 lung, in the experiment on K-562 leukemia, in the experiment on A549 NSCLC and with HS 578T breast was more than 100 µM in each case. Besides, in the experiment on HCC-2998 colon, the TGI was more than 100 µM.

Regarding `O=C(CC(C(=O)c1ccsc1)c1ccccc1)c1ccccc1` (stereo not given), the TGI with T-47D breast was more than 100 µM; in the experiment with NCI-H23 lung, 36.1 µM; in the experiment with NCI/ADR-RES ovarian it was more than 100 µM; with SNB-75 CNS, more than 100 µM; with ACHN renal, more than 100 µM; with SR leukemia, more than 100 µM. For the same molecule, the TGI in the experiment on SK-OV-3 ovarian, with SF-539 CNS, in the experiment on OVCAR-5 ovarian, in the experiment on HOP-92 NSCLC, in the experiment on HT29 colon and with UACC-62 melanoma was more than 100 µM throughout. In addition, the TGI with NCI-H460 lung was more than 100 µM; in the experiment on K-562 leukemia, more than 100 µM; in the experiment on A549 NSCLC it was 80 µM; in the experiment with HS 578T breast it was more than 100 µM; in the experiment with HCC-2998 colon, more than 100 µM.

Regarding `COc1cccc(C2c3cc4c(cc3OC(C)(N3CCCC3)C2C)OCO4)c1` (stereo not given), the TGI with T-47D breast stood at 64 µM; in the experiment on MDA-MB-231 breast, 27.4 µM; in the experiment with NCI-H23 lung, 71.1 µM; in the experiment on NCI/ADR-RES ovarian, 40.2 µM; in the experiment with SNB-75 CNS, 26.5 µM; in the experiment on ACHN renal, 82.3 µM. In addition, the TGI is more than 100 µM with SR leukemia; 41.5 µM in the experiment with SK-OV-3 ovarian; 37.2 µM with SF-539 CNS; 47.5 µM in the experiment on OVCAR-5 ovarian; 42.2 µM with HOP-92 NSCLC; 62.2 µM in the experiment with PC-3 prostate. Moreover, the TGI in the experiment on HT29 colon is 15 µM; with UACC-62 melanoma, 23.6 µM; in the experiment with NCI-H460 lung, 26.4 µM; in the experiment with K-562 leukemia, more than 100 µM; in the experiment on A549 NSCLC, 32.1 µM; in the experiment with HS 578T breast, 19.9 µM. In the experiment with HCC-2998 colon, the TGI came out at 32.8 µM.

As to `CC1=C(CO)C2=C(C)C3(CC3)[C@@](C)(O)C(=O)C2=C1`, the TGI in the experiment on T-47D breast is 2.48 µM; in the experiment on MDA-MB-231 breast, 1.34 µM; with NCI-H23 lung, 0.284 µM; with NCI/ADR-RES ovarian it was 0.698 µM; with SNB-75 CNS, 0.473 µM; in the experiment on ACHN renal, 1.52 µM. In addition, the TGI was more than 100 µM with SR leukemia; 0.926 µM with SK-OV-3 ovarian; 0.371 µM in the experiment on SF-539 CNS; 0.553 µM in the experiment with OVCAR-5 ovarian; 0.639 µM with HOP-92 NSCLC; 1.31 µM in the experiment on PC-3 prostate. Further, the TGI in the experiment on HT29 colon is 1.12 µM; with K-562 leukemia, more than 100 µM; in the experiment with A549 NSCLC it was 1.64 µM; in the experiment with HS 578T breast it was 1.51 µM; in the experiment on HCC-2998 colon, 0.329 µM.

In the case of `Cc1cc(C(F)(F)F)cc(-n2nc(NS(=O)(=O)c3cc(C)c(Cl)cc3S)nc2N)n1`, the TGI was more than 100 µM in the experiment with T-47D breast; more than 100 µM with MDA-MB-231 breast; 94.1 µM in the experiment on NCI/ADR-RES ovarian; more than 100 µM in the experiment on SNB-75 CNS; more than 100 µM in the experiment with ACHN renal; more than 100 µM in the experiment with SR leukemia. Moreover, the TGI in the experiment with SK-OV-3 ovarian is more than 100 µM; with HOP-92 NSCLC it was more than 100 µM; with PC-3 prostate, more than 100 µM; with HT29 colon it was more than 100 µM; in the experiment on UACC-62 melanoma it was more than 100 µM; in the experiment on NCI-H460 lung, 70.7 µM. Besides, the TGI in the experiment with K-562 leukemia, in the experiment with A549 NSCLC, in the experiment on HS 578T breast and in the experiment on HCC-2998 colon was more than 100 µM throughout.

For the molecule `COC1(OC)CCCc2c1no[n+]2[O-]`, the TGI in the experiment with MDA-MB-231 breast, with NCI-H23 lung, in the experiment on NCI/ADR-RES ovarian, in the experiment on SNB-75 CNS, in the experiment with ACHN renal and in the experiment on SR leukemia was more than 100 µM each time. The TGI in the experiment on SK-OV-3 ovarian, in the experiment with SF-539 CNS, in the experiment with OVCAR-5 ovarian, with PC-3 prostate, in the experiment with HT29 colon and in the experiment on UACC-62 melanoma was more than 100 µM each time. For the same molecule, the TGI with NCI-H460 lung, in the experiment with K-562 leukemia, with A549 NSCLC, with HS 578T breast and in the experiment on HCC-2998 colon was more than 100 µM each time.

`CC(=O)NC1=N/C(=C\c2ccc(Cl)cc2)C(=O)N1/C=C1\C(=O)Oc2ccccc2C1=O`: the TGI in the experiment on T-47D breast, with MDA-MB-231 breast, with NCI-H23 lung, in the experiment on NCI/ADR-RES ovarian, in the experiment with SNB-75 CNS and in the experiment with ACHN renal was more than 100 µM in each case. The TGI in the experiment with SR leukemia, in the experiment on SK-OV-3 ovarian, with SF-539 CNS, in the experiment with OVCAR-5 ovarian, with PC-3 prostate and with HT29 colon was more than 100 µM in each case. In addition, the TGI with UACC-62 melanoma was more than 100 µM; in the experiment on NCI-H460 lung it was more than 100 µM; in the experiment with K-562 leukemia, more than 100 µM; in the experiment with A549 NSCLC, more than 100 µM; in the experiment on HS 578T breast it was 6.22 µM; in the experiment with HCC-2998 colon it was more than 100 µM.

Consider `CN(C)/N=C1/CCC(C(F)(F)F)(C(F)(F)F)O1`, for which the TGI in the experiment with T-47D breast is more than 100 µM; in the experiment with MDA-MB-231 breast it was 57.4 µM; with NCI-H23 lung, 98.4 µM; with NCI/ADR-RES ovarian, 69.6 µM; in the experiment on SNB-75 CNS it was 97.5 µM; in the experiment on ACHN renal, more than 100 µM. For the same molecule, the TGI in the experiment on SR leukemia was more than 100 µM; with SK-OV-3 ovarian it was more than 100 µM; in the experiment on SF-539 CNS, more than 100 µM; in the experiment with OVCAR-5 ovarian, more than 100 µM; in the experiment on HOP-92 NSCLC it was 70.1 µM; with PC-3 prostate, more than 100 µM. Moreover, the TGI with HT29 colon is more than 100 µM; in the experiment on UACC-62 melanoma, 68.8 µM; in the experiment with NCI-H460 lung, more than 100 µM; in the experiment on K-562 leukemia it was more than 100 µM; in the experiment with A549 NSCLC, more than 100 µM; in the experiment with HS 578T breast, 88.4 µM. The molecule also returned a TGI in the experiment on HCC-2998 colon of more than 100 µM.

In the case of `CC1(C)OC[C@@H]([C@H](O)C2C=CC(=O)S2)O1` (stereo not given in full), the TGI in the experiment on MDA-MB-231 breast is 70 µM; with NCI-H23 lung, 78.5 µM; in the experiment with BT-549 breast it was 47.5 µM; in the experiment on NCI/ADR-RES ovarian, 83.6 µM; in the experiment with SNB-75 CNS, more than 100 µM; with ACHN renal, 49.2 µM. Besides, the TGI was more than 100 µM in the experiment on SK-OV-3 ovarian; more than 100 µM in the experiment on SF-539 CNS; more than 100 µM in the experiment on OVCAR-5 ovarian; 58.5 µM in the experiment on HOP-92 NSCLC; more than 100 µM in the experiment on PC-3 prostate; 55.5 µM with HT29 colon. Besides, the TGI in the experiment with UACC-62 melanoma was 35.9 µM; in the experiment on NCI-H460 lung it was more than 100 µM; in the experiment on K-562 leukemia it was more than 100 µM; in the experiment on A549 NSCLC it was more than 100 µM; in the experiment on HCC-2998 colon, 33.5 µM.

`CCOC(=O)c1sc2c(c1OC(=O)c1ccc(OC)cc1)c(=O)n(-c1ccccc1)c(=S)n2-c1ccccc1`: the TGI with T-47D breast was more than 100 µM; in the experiment on MDA-MB-231 breast, 54.2 µM; in the experiment on NCI-H23 lung it was more than 100 µM; with NCI/ADR-RES ovarian, 72.2 µM; in the experiment with SNB-75 CNS, more than 100 µM; in the experiment with ACHN renal it was more than 100 µM. The TGI is 93.2 µM with SR leukemia; more than 100 µM in the experiment with SK-OV-3 ovarian; more than 100 µM with SF-539 CNS; more than 100 µM in the experiment with OVCAR-5 ovarian; 63.4 µM in the experiment on HOP-92 NSCLC; more than 100 µM with PC-3 prostate. For the same molecule, the TGI in the experiment on HT29 colon, in the experiment on UACC-62 melanoma, in the experiment on NCI-H460 lung, in the experiment on K-562 leukemia, in the experiment with A549 NSCLC and in the experiment with HS 578T breast was more than 100 µM each time. Besides, the TGI in the experiment on HCC-2998 colon was 38 µM.

Turning to `C=CCC1(CN(C)C)CC/C(=C\c2ccc(Cl)cc2)C1=O` (stereo not given), the TGI is more than 100 µM in the experiment with NCI-H23 lung; more than 90.3 µM in the experiment on SNB-75 CNS; more than 100 µM with ACHN renal; 20.3 µM in the experiment with SR leukemia; more than 100 µM in the experiment with SK-OV-3 ovarian; more than 83.8 µM in the experiment on SF-539 CNS. Also, the TGI in the experiment with OVCAR-5 ovarian is more than 100 µM; in the experiment with HOP-92 NSCLC, more than 100 µM; in the experiment with HT29 colon, 60.1 µM; in the experiment on UACC-62 melanoma it was more than 100 µM; with NCI-H460 lung, 45.6 µM; in the experiment with K-562 leukemia, 76.3 µM. The TGI was more than 100 µM in the experiment with A549 NSCLC and more than 70.5 µM in the experiment on HCC-2998 colon.

Regarding `CC1CN=C(N(C(=O)Nc2ccccc2)c2ccc(Cl)c(Cl)c2)S1` (stereo not given), the TGI in the experiment on T-47D breast, in the experiment with MDA-MB-231 breast, in the experiment on NCI-H23 lung, in the experiment on NCI/ADR-RES ovarian, in the experiment with SNB-75 CNS and with ACHN renal was more than 100 µM in each case. Moreover, the TGI was more than 100 µM with SR leukemia; more than 100 µM with SK-OV-3 ovarian; more than 100 µM in the experiment with SF-539 CNS; more than 100 µM in the experiment with OVCAR-5 ovarian; 52.3 µM in the experiment with HOP-92 NSCLC; more than 100 µM with PC-3 prostate. Further, the TGI with HT29 colon is 78 µM; with NCI-H460 lung, 53.1 µM; in the experiment with K-562 leukemia, more than 10 µM; with A549 NSCLC, more than 100 µM; in the experiment with HS 578T breast it was more than 100 µM; in the experiment with HCC-2998 colon, 69.9 µM.

Source of the values: PubChem BioAssay (NCI).
